# According to PMC6677754, “In silico design and optimization of selective membranolytic anticancer peptides” (Scientific Reports, 2019):
# Peptide text beside a SMILES is read from it.
# What was measured:
# Assay in all cases: NCI-60 screening
# Format in all cases: cell-based, human
# [1] = tested on: 786-0; settings: 786-0 (Renal); log GI50; 48 h, sulforhodamine B, 10^-4 to 10^-8 M
# Protocol: (§1) NCI-60 screening procedure
# (§2) The NCI-60 screening procedure was performed by the Developmental Therapeutics Program of the National Cancer Institute. The procedure was performed as previously described24 in 96-well microtiter plates. Each peptide was tested in a 5-concentration assay, starting at 10^-4 M and diluting 10-fold to the lowest 10^-8 M concentration. The peptides were incubated for 48 h and the cell concentration was assayed by using the sulforhodamine B assay25 and optical density measurements. The growth inhibition (GI50) value24, measures the growth inhibitory power of the drug agent. The GI50 value is the concentration of the test drug for which the condition in Eq. S1 is met, where T is the optical density of the test well after a 48-h exposure to the peptide, T0 the optical density before applying the peptide drug and C the control optical density of a well where no peptide was applied.
# [2] = tested on: ACHN; settings: ACHN (Renal); log GI50; 48 h, sulforhodamine B, 10^-4 to 10^-8 M
# Protocol: as §1, §2
# [3] = tested on: BT-549; settings: BT-549 (Breast); log GI50; 48 h, sulforhodamine B, 10^-4 to 10^-8 M
# Protocol: as §1, §2
# [4] = tested on: CAKI-1; settings: CAKI-1 (Renal); log GI50; 48 h, sulforhodamine B, 10^-4 to 10^-8 M
# Protocol: as §1, §2
# [5] = tested on: CCRF-CEM; settings: CCRF-CEM (Leukemia); log GI50; 48 h, sulforhodamine B, 10^-4 to 10^-8 M
# Protocol: as §1, §2
# [6] = tested on: COLO 205; settings: COLO 205 (Colon); log GI50; 48 h, sulforhodamine B, 10^-4 to 10^-8 M
# Protocol: as §1, §2
# [7] = tested on: EKVX; settings: EKVX (Lung); log GI50; 48 h, sulforhodamine B, 10^-4 to 10^-8 M
# Protocol: as §1, §2
# [8] = tested on: HL-60; settings: HL-60 (Leukemia); log GI50; 48 h, sulforhodamine B, 10^-4 to 10^-8 M
# Protocol: as §1, §2
# [9] = tested on: HS-578T; settings: HS-578T (Breast); log GI50; 48 h, sulforhodamine B, 10^-4 to 10^-8 M
# Protocol: as §1, §2
# [10] = tested on: MDA-MB-435; settings: MDA-MB-435 (Melanoma); log GI50; 48 h, sulforhodamine B, 10^-4 to 10^-8 M
# Protocol: as §1, §2
# [11] = tested on: MDA-MB-468; settings: MDA-MB-468 (Breast); log GI50; 48 h, sulforhodamine B, 10^-4 to 10^-8 M
# Protocol: as §1, §2
# [12] = tested on: MOLT-4; settings: MOLT-4 (Leukemia); log GI50; 48 h, sulforhodamine B, 10^-4 to 10^-8 M
# Protocol: as §1, §2
# [13] = tested on: NCI-H522; settings: NCI-H522 (Lung); log GI50; 48 h, sulforhodamine B, 10^-4 to 10^-8 M
# Protocol: as §1, §2
# [14] = tested on: NCI/ADR-RES; settings: NCI/ADR-RES (Ovarian); log GI50; 48 h, sulforhodamine B, 10^-4 to 10^-8 M
# Protocol: as §1, §2
# [15] = tested on: OVCAR-3; settings: OVCAR-3 (Ovarian); log GI50; 48 h, sulforhodamine B, 10^-4 to 10^-8 M
# Protocol: as §1, §2
# [16] = tested on: OVCAR-4; settings: OVCAR-4 (Ovarian); log GI50; 48 h, sulforhodamine B, 10^-4 to 10^-8 M
# Protocol: as §1, §2
# [17] = tested on: OVCAR-5; settings: OVCAR-5 (Ovarian); log GI50; 48 h, sulforhodamine B, 10^-4 to 10^-8 M
# Protocol: as §1, §2
# [18] = tested on: OVCAR-8; settings: OVCAR-8 (Ovarian); log GI50; 48 h, sulforhodamine B, 10^-4 to 10^-8 M
# Protocol: as §1, §2
# [19] = tested on: RPMI-8226; settings: RPMI-8226 (Leukemia); log GI50; 48 h, sulforhodamine B, 10^-4 to 10^-8 M
# Protocol: as §1, §2
# [20] = tested on: SK-MEL-2; settings: SK-MEL-2 (Melanoma); log GI50; 48 h, sulforhodamine B, 10^-4 to 10^-8 M
# Protocol: as §1, §2
# [21] = tested on: SK-MEL-5; settings: SK-MEL-5 (Melanoma); log GI50; 48 h, sulforhodamine B, 10^-4 to 10^-8 M
# Protocol: as §1, §2
# [22] = tested on: SN12C; settings: SN12C (Renal); log GI50; 48 h, sulforhodamine B, 10^-4 to 10^-8 M
# Protocol: as §1, §2
# [23] = tested on: SR; settings: SR (Leukemia); log GI50; 48 h, sulforhodamine B, 10^-4 to 10^-8 M
# Protocol: as §1, §2
# [24] = tested on: T-47D; settings: T-47D (Breast); log GI50; 48 h, sulforhodamine B, 10^-4 to 10^-8 M
# Protocol: as §1, §2
# [25] = tested on: U251; settings: U251 (CNS); log GI50; 48 h, sulforhodamine B, 10^-4 to 10^-8 M
# Protocol: as §1, §2
# [26] = tested on: UACC-257; settings: UACC-257 (Melanoma); log GI50; 48 h, sulforhodamine B, 10^-4 to 10^-8 M
# Protocol: as §1, §2
# [27] = tested on: UO-31; settings: UO-31 (Renal); log GI50; 48 h, sulforhodamine B, 10^-4 to 10^-8 M
# Protocol: as §1, §2
structure (smiles),measurement,setting,value
CC[C@H](C)[C@H](NC(=O)[C@H](CCCCN)NC(=O)[C@H](CCCCN)NC(=O)[C@@H](NC(=O)[C@@H](NC(=O)[C@@H](N)Cc1c[nH]cn1)[C@@H](C)CC)[C@@H](C)CC)C(=O)N[C@@H](CCCNC(=N)N)C(=O)N[C@H](C(=O)N[C@@H](Cc1c[nH]c2ccccc12)C(=O)N[C@@H](Cc1ccc(O)cc1)C(=O)N[C@@H](CCCNC(=N)N)C(=O)N[C@@H](CCCCN)C(=O)N[C@@H](C)C(=O)N[C@@H](Cc1c[nH]c2ccccc12)C(=O)N[C@@H](Cc1c[nH]cn1)C(=O)N[C@H](C(=O)N[C@@H](CC(C)C)C(=O)NCC(=O)N[C@@H](CCCCN)C(=O)N[C@H](C(N)=O)C(C)C)C(C)C)[C@@H](C)O [Off2] (H-HIIKKIRTWYRKAWHVLGKV-NH2),Log GI (M),[1],-5.47 M
same,Log GI (M),[2],-4.88 M
same,Log GI (M),[3],-4.89 M
same,Log GI (M),[4],-5.48 M
same,Log GI (M),[5],-5.43 M
same,Log GI (M),[6],-5.68 M
same,Log GI (M),[7],-5.63 M
same,Log GI (M),[8],-5.37 M
same,Log GI (M),[9],-5.45 M
same,Log GI (M),[10],-5.29 M
same,Log GI (M),[11],-5.19 M
same,Log GI (M),[12],-4.85 M
same,Log GI (M),[13],-4.96 M
same,Log GI (M),[14],-5.23 M
same,Log GI (M),[15],-4.98 M
same,Log GI (M),[16],-4.89 M
same,Log GI (M),[17],-5.21 M
same,Log GI (M),[18],-5.32 M
same,Log GI (M),[19],-5.06 M
same,Log GI (M),[20],-5.28 M
same,Log GI (M),[21],-5.40 M
same,Log GI (M),[22],-5.53 M
same,Log GI (M),[23],-5.15 M
same,Log GI (M),[24],-5.72 M
same,Log GI (M),[25],-5.14 M
same,Log GI (M),[26],-5.07 M
same,Log GI (M),[27],-4.73 M
CC[C@H](C)[C@H](NC(=O)[C@H](CCCNC(=N)N)NC(=O)[C@H](Cc1c[nH]c2ccccc12)NC(=O)[C@@H](NC(=O)[C@H](CCCCN)NC(=O)[C@H](CCCCN)NC(=O)[C@@H](NC(=O)[C@@H](NC(=O)[C@@H](NC(=O)[C@H](CCCCN)NC(=O)[C@H](Cc1ccccc1)NC(=O)[C@H](CCCCN)NC(=O)[C@H](CCCCN)NC(=O)[C@H](Cc1ccccc1)NC(=O)[C@@H](NC(=O)[C@@H](N)CCCCN)[C@@H](C)CC)[C@@H](C)O)[C@@H](C)CC)[C@@H](C)CC)C(C)C)C(=O)N[C@@H](Cc1ccccc1)C(=O)NCC(=O)N[C@@H](CCCNC(=N)N)C(=O)N[C@@H](Cc1ccccc1)C(N)=O [AmphiArc2] (H-KIFKKFKTIIKKVWRIFGRF-NH2),Log GI (M),[1],-5.53 M
same,Log GI (M),[2],-5.71 M
same,Log GI (M),[3],-5.45 M
same,Log GI (M),[4],-5.71 M
same,Log GI (M),[5],-5.60 M
same,Log GI (M),[6],-5.58 M
same,Log GI (M),[7],-5.73 M
same,Log GI (M),[8],-5.28 M
same,Log GI (M),[9],-5.65 M
same,Log GI (M),[10],-5.63 M
same,Log GI (M),[11],-5.88 M
same,Log GI (M),[12],-5.51 M
same,Log GI (M),[13],-5.63 M
same,Log GI (M),[14],-5.53 M
same,Log GI (M),[15],-5.67 M
same,Log GI (M),[16],-5.67 M
same,Log GI (M),[17],-5.68 M
same,Log GI (M),[18],-5.48 M
same,Log GI (M),[19],-5.51 M
same,Log GI (M),[20],-5.58 M
same,Log GI (M),[21],-5.64 M
same,Log GI (M),[22],-5.69 M
same,Log GI (M),[23],-5.57 M
same,Log GI (M),[24],-5.66 M
same,Log GI (M),[25],-5.52 M
same,Log GI (M),[26],-5.54 M
same,Log GI (M),[27],-5.74 M
